Laboratory results published in the NIST ThermoML archive (doi:10.1007/s10765-010-0874-x).
± gives the expanded uncertainty stated by the source.

Tests used:
[1] = 101 kPa, Liquid; for speed of sound: Sing-around technique in a fixed-path interferometer
[2] = xn = mol fraction of the nth substance listed; settings: 101 kPa, Liquid; for speed of sound: Sing-around technique in a fixed-path interferometer

BrCCBr [1,2-dibromoethane]
[1]
Settings | mass density [kg/m3] | speed of sound [m/s]
293.15 K | 2179.59 ± 2.2 | 1007 ± 0.74
298.15 K | 2169.14 ± 2.2 | 994.27 ± 0.74

BrCCBr [1,2-dibromoethane] + CCCCCCO
[2]
Settings | mass density, 293.15 K [kg/m3] | mass density, 298.15 K [kg/m3] | speed of sound, 293.15 K [m/s] | speed of sound, 298.15 K [m/s]
x1 = 0.0402 | 856.608 ± 0.43 | 852.83 ± 0.43 | 1296.7 ± 0.83 | 1280 ± 0.83
x1 = 0.0682 | 883.413 ± 0.4 | 879.495 ± 0.4 | 1281 ± 0.83 | 1264.4 ± 0.82
x1 = 0.1276 | 941.916 ± 0.33 | 937.69 ± 0.33 | 1249.4 ± 0.82 | 1233.1 ± 0.81
x1 = 0.2056 | 1022.36 ± 0.3 | 1017.7 ± 0.29 | 1211.2 ± 0.81 | 1195.3 ± 0.8
x1 = 0.2686 | 1090.47 ± 0.4 | 1085.45 ± 0.39 | 1182.9 ± 0.8 | 1167.3 ± 0.79
x1 = 0.3892 | 1228.97 ± 0.6 | 1223.2 ± 0.59 | 1135.2 ± 0.78 | 1120.2 ± 0.78
x1 = 0.4277 | 1276.43 ± 0.69 | 1270.41 ± 0.68 | 1121.2 ± 0.78 | 1106.3 ± 0.77
x1 = 0.5444 | 1427.13 ± 0.93 | 1420.31 ± 0.92 | 1083.6 ± 0.76 | 1069.2 ± 0.76
x1 = 0.6405 | 1562 ± 1.2 | 1554.45 ± 1.1 | 1057.4 ± 0.76 | 1043.6 ± 0.75
x1 = 0.7326 | 1701.64 ± 1.4 | 1693.37 ± 1.4 | 1036.5 ± 0.75 | 1023.1 ± 0.75
x1 = 0.8519 | 1899.69 ± 1.7 | 1890.44 ± 1.7 | 1016.8 ± 0.74 | 1004 ± 0.74
x1 = 0.9273 | 2036.52 ± 2 | 2026.66 ± 2 | 1009.9 ± 0.74 | 997.38 ± 0.74
x1 = 0.9587 | 2096.51 ± 2.1 | 2086.4 ± 2.1 | 1008.3 ± 0.74 | 995.92 ± 0.74
x1 = 0.9782 | 2135.29 ± 2.2 | 2125.02 ± 2.1 | 1007.4 ± 0.74 | 994.76 ± 0.74
x1 = 1 | 2179.59 ± 2.2 | 2169.14 ± 2.2 | 1007 ± 0.74 | 994.27 ± 0.74

ClCCCl [1,2-dichloroethane]
[1]
Settings | mass density [kg/m3] | speed of sound [m/s]
293.15 K | 1252.77 ± 0.6 | 1212.9 ± 0.8
298.15 K | 1245.56 ± 0.58 | 1193.6 ± 0.79

ClCCCl [1,2-dichloroethane] + CCCCCCO
[2]
Settings | mass density, 293.15 K [kg/m3] | mass density, 298.15 K [kg/m3] | speed of sound, 293.15 K [m/s] | speed of sound, 298.15 K [m/s]
x1 = 0.037 | 828.769 ± 0.43 | 825.105 ± 0.43 | 1313.2 ± 0.83 | 1296.2 ± 0.83
x1 = 0.0769 | 839.847 ± 0.41 | 836.074 ± 0.42 | 1305.3 ± 0.83 | 1288.2 ± 0.82
x1 = 0.1499 | 860.583 ± 0.38 | 856.62 ± 0.39 | 1291.7 ± 0.83 | 1274.3 ± 0.82
x1 = 0.2147 | 879.725 ± 0.35 | 875.586 ± 0.36 | 1279.7 ± 0.82 | 1262.2 ± 0.82
x1 = 0.2935 | 904.954 ± 0.32 | 900.591 ± 0.33 | 1265.2 ± 0.82 | 1248 ± 0.81
x1 = 0.3952 | 940.475 ± 0.27 | 935.784 ± 0.28 | 1247.7 ± 0.81 | 1230 ± 0.81
x1 = 0.4532 | 962.107 ± 0.24 | 957.223 ± 0.25 | 1238.5 ± 0.81 | 1220.7 ± 0.8
x1 = 0.5596 | 1005.05 ± 0.2 | 999.79 ± 0.19 | 1222.8 ± 0.8 | 1206 ± 0.8
x1 = 0.6113 | 1027.55 ± 0.24 | 1022.09 ± 0.23 | 1216.7 ± 0.8 | 1199.8 ± 0.8
x1 = 0.6971 | 1067.98 ± 0.3 | 1062.14 ± 0.29 | 1207.9 ± 0.8 | 1189.7 ± 0.79
x1 = 0.7791 | 1111.06 ± 0.37 | 1104.85 ± 0.36 | 1202.3 ± 0.8 | 1184.3 ± 0.79
x1 = 0.8563 | 1155.16 ± 0.45 | 1148.59 ± 0.44 | 1200.7 ± 0.8 | 1182.8 ± 0.79
x1 = 0.9335 | 1205.43 ± 0.53 | 1198.46 ± 0.52 | 1205.4 ± 0.8 | 1184.3 ± 0.79
x1 = 0.979 | 1236.99 ± 0.59 | 1229.8 ± 0.57 | 1211.8 ± 0.8 | 1187.7 ± 0.79
x1 = 1 | 1252.77 ± 0.6 | 1245.56 ± 0.58 | 1212.9 ± 0.8 | 1193.6 ± 0.79

CCCCCCO [hexan-1-ol]
[1]
Settings | mass density [kg/m3] | speed of sound [m/s]
293.15 K | 818.856 ± 0.44 | 1320.1 ± 0.83
298.15 K | 815.281 ± 0.45 | 1303.2 ± 0.83

CCCCCCO [hexan-1-ol] + BrCCBr
[2], x2 = 0
Settings | mass density [kg/m3] | speed of sound [m/s]
293.15 K | 818.856 ± 0.44 | 1320.1 ± 0.83
298.15 K | 815.281 ± 0.45 | 1303.2 ± 0.83

CCCCCCO [hexan-1-ol] + ClC(Cl)=C(Cl)Cl
[2], x2 = 0
Settings | mass density [kg/m3] | speed of sound [m/s]
293.15 K | 818.856 ± 0.44 | 1320.1 ± 0.83
298.15 K | 815.281 ± 0.45 | 1303.2 ± 0.83

CCCCCCO [hexan-1-ol] + ClCCCl
[2], x2 = 0
Settings | mass density [kg/m3] | speed of sound [m/s]
293.15 K | 818.856 ± 0.44 | 1320.1 ± 0.83
298.15 K | 815.281 ± 0.45 | 1303.2 ± 0.83

ClC(Cl)=C(Cl)Cl [tetrachloroethene]
[1]
Settings | mass density [kg/m3] | speed of sound [m/s]
293.15 K | 1622.74 ± 1.2 | 1054 ± 0.75
298.15 K | 1614.43 ± 1.2 | 1039 ± 0.75

ClC(Cl)=C(Cl)Cl [tetrachloroethene] + CCCCCCO
[2]
Settings | mass density, 293.15 K [kg/m3] | mass density, 298.15 K [kg/m3] | speed of sound, 293.15 K [m/s] | speed of sound, 298.15 K [m/s]
x1 = 0.0688 | 864.637 ± 0.4 | 860.792 ± 0.4 | 1292 ± 0.83 | 1274.5 ± 0.82
x1 = 0.123 | 901.521 ± 0.35 | 897.46 ± 0.35 | 1270.8 ± 0.82 | 1253.7 ± 0.82
x1 = 0.2457 | 987.759 ± 0.24 | 983.18 ± 0.24 | 1226.3 ± 0.81 | 1209.5 ± 0.8
x1 = 0.3618 | 1072.99 ± 0.33 | 1067.89 ± 0.32 | 1188.2 ± 0.8 | 1171.6 ± 0.79
x1 = 0.4502 | 1140.46 ± 0.44 | 1134.94 ± 0.43 | 1161.5 ± 0.79 | 1144.9 ± 0.78
x1 = 0.5583 | 1226.3 ± 0.57 | 1220.26 ± 0.56 | 1131.5 ± 0.78 | 1115.1 ± 0.77
x1 = 0.6518 | 1303.62 ± 0.7 | 1297.1 ± 0.69 | 1108.3 ± 0.77 | 1092 ± 0.77
x1 = 0.7068 | 1350.53 ± 0.78 | 1343.73 ± 0.77 | 1095.8 ± 0.77 | 1079.5 ± 0.76
x1 = 0.7419 | 1381.18 ± 0.83 | 1374.19 ± 0.82 | 1088.4 ± 0.76 | 1072 ± 0.76
x1 = 0.7797 | 1414.65 ± 0.89 | 1407.46 ± 0.88 | 1080.9 ± 0.76 | 1064.6 ± 0.76
x1 = 0.8315 | 1461.44 ± 0.97 | 1453.97 ± 0.95 | 1071.4 ± 0.76 | 1055.6 ± 0.75
x1 = 0.8718 | 1498.8 ± 1 | 1491.15 ± 1 | 1064.7 ± 0.76 | 1049 ± 0.75
x1 = 0.9179 | 1542.25 ± 1.1 | 1534.33 ± 1.1 | 1058.2 ± 0.75 | 1043.3 ± 0.75
x1 = 0.9504 | 1573.61 ± 1.2 | 1565.56 ± 1.1 | 1055 ± 0.75 | 1041.2 ± 0.75
x1 = 1 | 1622.74 ± 1.2 | 1614.43 ± 1.2 | 1054 ± 0.75 | 1039 ± 0.75
